The values below come from patent publication US20230065814A1, “CONJUGATES OF-ELECTRON-PAIR-DONATING HETEROAROMATIC NITROGEN-COMPRISING COMPOUNDS” (Ascendis Pharma A/S, priority 2019, published 2023).

Assay type in all cases: physicochemical
Data set [1] is described as follows: In vitro release kinetics (Example 34): cleavage rate of the reversible bond at pH 7.4 and 37° C. in aqueous buffer. The note with it: aqueous sodium phosphate buffer, read-out: t1/2 (pH 7.4) (converted). Here is the method: For soluble examples disappearance of the conjugate was determined by LCMS (UV detection) and fitted with curve fitting software to obtain the preliminary half-life of the release. For insoluble examples (hydrogels) the increase in released heteroaromatic moiety containing molecule in the supernatant was determined by LCMS (UV detection) and used as input for the curve fitting software to obtain the preliminary half-life of the release.
Compounds marked with “**” were synthesized for comparison.

Data set [2] can be described thus: In vitro release kinetics (Example 69): cleavage rate of the reversible bond at pH 7.4 and 37° C. in aqueous buffer. The note with it: aqueous sodium phosphate buffer. Here is the method:
The cleavage rate of the reversible bond from conjugates 18, 20, 23 was monitored at pH 7.4 and 37° C. in aqueous buffer (pH 7.4 48 mM sodium phosphate, 20% acetonitrile). Disappearance of the conjugate was determined by LCMS (UV detection) and fitted with curve fitting software to obtain the half-life of the release.

Data set [3] can be described thus: In vitro release kinetics (Example 59): cleavage rate of the reversible bond at 37° C. in aqueous buffer, conditions A-F. The note with it: aqueous sodium phosphate buffer, pH 7.4. Here is the method: The cleavage rate of the reversible bond from conjugates 9a-d, 13a-e and 17b-q was monitored at 37° C. in aqueous buffer (condition A: pH 7.4 60 mM sodium phosphate, 1% acetonitrile, B: pH 7.4 48 mM sodium phosphate, 20% acetonitrile, 0.1% Pluronic F68, C: pH 7.4 48 mM sodium phosphate with 16 mM L-Methionine 2.4 mM EDTA, 0.1% pluronic and 20% acetonitrile, D: pH 7.0 48 mM sodium phosphate with 16 mM L-Methionine 2.4 mM EDTA, 0.1% pluronic and 20% acetonitrile, E: pH 7.4 60 mM sodium phosphate, F: pH 7.4 48 mM sodium phosphate, 20% acetonitrile). For soluble examples disappearance of the conjugate was determined by LCMS (UV detection) and fitted with curve fitting software to obtain the half-life of the release. For insoluble examples (hydrogels) the increase in released axitinib in the supernatant was determined by LCMS (UV detection) and used as input for the curve fitting software to obtain the half-life of the release. Release rates at pH 7.4 for conjugates only incubated at pH 7.0 are estimated to increase by a factor of 2 to 3.
The compounds marked with “*” are not in accordance with the present invention as they were for efficiency reasons not linked to a moiety Z. Nevertheless, they show the release half-lives of such moieties -L^1-.

In the case of `O=C(O)CCNC(=O)[C@H]1CC[C@H](OC(=O)n2nc(C(=O)O)c3ccccc32)CC1` [Compound 6f], in data set [1], the half-life is 39 days.

For `CC(CCCCC(=O)O)NC(=O)CN(C)C(=O)n1ccnc1` (stereo not shown) [Compound 18], in data set [2], the half-life was 40.8 h.

Regarding `CCN(CC(=O)NCCOCCOCC(=O)O)C(=O)n1nc(C(=O)O)c2ccccc21` [Compound 13d], the half-life in data set [3] is 76.8 h.

As for `COC(=O)c1ccc2ncn(C(=O)N(C)CC(=O)NC(C)CCCCC(=O)O)c2c1` (stereo not shown) [Compound 20], in data set [2], the half-life was 43.2 h.

Take `CCCNC(=O)CCN(C)C(=O)n1nc(C(=O)O)c2ccccc21` [Compound 7d]: the half-life in data set [1] is above 180 days.

`C[C@@H](C(=O)NCCCCCC(=O)O)N(C)C(=O)n1nc(C(=O)O)c2ccccc21` [Compound 8c]: the half-life in data set [1] is 13 days.

In data set [2], `CN(C)CCN(C)C(=O)n1ccc2cc(C(=O)O)ccc21` [Compound 23] showed a half-life of 744 h.

Take `CCCNC(=O)CN(CC)C(=O)n1nc(C(=O)O)c2ccccc21` [Compound 7h]: in data set [1], the half-life was 8.1 days.

In the case of `C[C@@H](CC(=O)N(C)CCC(=O)O)NC(=O)CN(C)C(=O)n1nc(C(=O)O)c2ccccc21` [Compound 13a], the half-life in data set [3] was 101 h.

For the molecule `CCN(CC(=O)NCCCCCC(=O)O)C(=O)n1nc(C(=O)O)c2ccccc21` [Compound 7f], the half-life in data set [1] is 9.6 days.

In data set [3], `CNC(=O)c1ccccc1Sc1ccc2c(/C=C/c3ccccn3)nn(C(=O)N(C)CC(=O)N[C@@H](C)CC(=O)O)c2c1` [Compound 9b] gave a half-life of 276 h.

`CNCCNC(=O)[C@H](CC(=O)n1ncc2ccccc21)N(C)C(=O)CCCCCS(=O)(=O)O` [1 h]: in data set [1], the half-life is below 0.000694 days.

Consider `C[C@H](NC(=O)CN(C)C(=O)n1nc(C(=O)O)c2ccccc21)C(=O)NCCCCCC(=O)O` [Compound 8b], for which the half-life in data set [1] was 0.342 days.

With `CC(=O)N[C@H](C(=O)O)[C@H](C)OC(=O)n1nc(C(=O)O)c2ccccc21` [Compound 6e], the half-life in data set [1] is 1 days.

With `CCCC(C)OC(=O)n1nc(C(=O)O)c2ccccc21` (stereo not shown) [Compound 6b], the half-life in data set [1] is 99 days.

`C[C@@H](CCC(=O)NCCCCCC(=O)O)NC(=O)CN(C)C(=O)n1nc(C(=O)O)c2ccccc21` [Compound 13c] showed a half-life in data set [3] of 166 h.

Regarding `CN(C)CCN(C)C(=O)n1nc(C(=O)O)c2ccccc21` [Compound 7j], the half-life in data set [1] is 0.121 days.

With `C[C@@H](CC(=O)NCCCCCC(=O)O)NC(=O)CN(C)C(=O)n1nc(C(=O)O)c2ccccc21` [Compound 8a], the half-life in data set [1] is 2.4 days.

Regarding `CCC(C)NC(=O)CN(C)C(=O)n1nc(C(=O)O)c2ccccc21` (stereo not shown) [Compound 7b], in data set [1], the half-life was 17 days.

As for `CC(C)[C@H](NC(=O)CN(C)C(=O)n1nc(C(=O)O)c2ccccc21)C(=O)O` [Compound 7c], the half-life in data set [1] is above 180 days.

The molecule `CCN(CC(=O)NCCCCCC(=O)O)C(=O)n1nc(/C=C/c2ccccn2)c2ccc(Sc3ccccc3C(=O)NC)cc21` [Compound 9d] gave a half-life in data set [3] of 110 h.

As for `CCCNC(=O)CN(C)C(=O)n1nc(C(=O)O)c2ccccc21` [Compound 7a], the half-life in data set [1] was 3.5 days.

As to `CCCNC(=O)n1nc(C(=O)O)c2ccccc21` [Compound 7i], the half-life in data set [1] was above 180 days.

In data set [3], `C[C@@H](CC(=O)O)NC(=O)C[C@H](C)NC(=O)CN(C)C(=O)n1nc(C(=O)O)c2ccccc21` [Compound 13b] showed a half-life of 86.4 h.

In the case of `O=C(O)CCCCCNC(=O)[C@@H]1CCCN1C(=O)n1nc(C(=O)O)c2ccccc21` [Compound 8d], the half-life in data set [1] is 12 days.

In data set [3], `CNC(=O)c1ccccc1Sc1ccc2c(/C=C/c3ccccn3)nn(C(=O)N(C)CC(=O)N[C@H](C(=O)O)C(C)C)c2c1` [Compound 9c] showed a half-life of 1130 h.

In the case of `CCCCOC(=O)n1nc(C(=O)O)c2ccccc21` [Compound 6a], the half-life in data set [1] is 21 days.

`CCN(CC(=O)NCCC(=O)O)C(=O)n1nc(/C=C/c2ccccn2)c2ccc(Sc3ccccc3C(=O)NC)cc21` [Compound 9a] gave a half-life in data set [3] of 96 h.

For the molecule `CC(C)(C)OC(=O)n1nc(C(=O)O)c2ccccc21` [Compound 6c], the half-life in data set [1] was 0.0833 days.

Regarding `CCN(CC(=O)NC(C)CCCCC(=O)O)C(=O)n1nc(C(=O)O)c2ccccc21` (stereo not shown) [Compound 7e], the half-life in data set [1] is 52 days.

Regarding `CC(CCC(=O)NCCC(=O)O)OC(=O)n1nc(C(=O)O)c2ccccc21` (stereo not shown) [Compound 6d], the half-life in data set [1] was 36 days.

Consider `O=C(O)CCCCCNC(=O)CONC(=O)CNC(=O)n1nc(C(=O)O)c2ccccc21` [Compound 13e], for which, in data set [3], the half-life was 108 h.

On to `CCN(CC(=O)NCCC(=O)O)C(=O)n1nc(C(=O)O)c2ccccc21` [Compound 7g], for which the half-life in data set [1] was 7.7 days.

Regarding `CN(C)CCCN(C)C(=O)n1nc(C(=O)O)c2ccccc21` [Compound 7k], the half-life in data set [1] was 164 days.
